Data taken from PMC11167047 (Cell Death Discovery, 2024).

How the values were obtained:
Assay in all cases: kinome screen (33PanQinase)
Type in all cases: biochemical
EPHB2 = molecular target: T1, EPHB2 (Homo sapiens, UniProt P29323)
T1 construct: purchased Reaction Biology Europe GmbH (formerly ProQinase)
T1 sequence (P29323 19-1055): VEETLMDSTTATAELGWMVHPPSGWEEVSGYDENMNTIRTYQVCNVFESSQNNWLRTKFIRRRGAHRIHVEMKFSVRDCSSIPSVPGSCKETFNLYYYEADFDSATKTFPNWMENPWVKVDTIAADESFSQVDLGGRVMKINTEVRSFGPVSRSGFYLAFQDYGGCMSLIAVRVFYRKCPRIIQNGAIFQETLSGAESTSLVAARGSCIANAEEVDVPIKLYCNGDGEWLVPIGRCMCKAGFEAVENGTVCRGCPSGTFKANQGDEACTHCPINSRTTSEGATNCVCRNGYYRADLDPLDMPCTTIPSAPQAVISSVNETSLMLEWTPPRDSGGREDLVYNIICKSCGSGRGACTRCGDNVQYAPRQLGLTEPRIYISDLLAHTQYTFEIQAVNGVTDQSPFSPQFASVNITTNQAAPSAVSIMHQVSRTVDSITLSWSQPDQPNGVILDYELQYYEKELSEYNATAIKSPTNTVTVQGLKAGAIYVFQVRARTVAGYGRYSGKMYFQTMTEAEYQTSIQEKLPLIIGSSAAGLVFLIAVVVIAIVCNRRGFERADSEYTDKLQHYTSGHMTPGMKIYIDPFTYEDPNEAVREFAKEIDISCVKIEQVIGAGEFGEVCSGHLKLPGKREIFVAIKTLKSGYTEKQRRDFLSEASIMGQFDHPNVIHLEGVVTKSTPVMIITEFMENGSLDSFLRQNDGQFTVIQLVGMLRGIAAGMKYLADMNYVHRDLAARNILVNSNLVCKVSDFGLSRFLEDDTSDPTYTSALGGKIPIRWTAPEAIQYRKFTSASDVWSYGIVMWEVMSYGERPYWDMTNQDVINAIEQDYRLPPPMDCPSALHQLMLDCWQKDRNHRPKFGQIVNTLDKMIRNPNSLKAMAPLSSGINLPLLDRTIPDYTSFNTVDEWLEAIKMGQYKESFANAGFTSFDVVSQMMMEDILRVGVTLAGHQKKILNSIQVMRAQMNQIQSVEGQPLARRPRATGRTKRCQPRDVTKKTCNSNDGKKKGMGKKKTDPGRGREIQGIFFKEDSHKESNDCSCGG
Description: (§1) The Kinome Screening was performed by Reaction Biology Europe GmbH (http://reactionbiology.com; Freiburg i. Br., Germany).

BTK = molecular target: T2, BTK (Homo sapiens, UniProt Q06187)
T2 construct: purchased Reaction Biology Europe GmbH (formerly ProQinase)
Description: as §1

ZAK = molecular target: T3, ZAK (Homo sapiens, UniProt Q9NYL2)
T3 construct: purchased Reaction Biology Europe GmbH (formerly ProQinase)
Description: as §1

PKCα = molecular target: T4, PKCα (Homo sapiens, UniProt P17252)
T4 construct: purchased Reaction Biology Europe GmbH (formerly ProQinase)
Description: as §1

CLK3 = molecular target: T5, CLK3 (Homo sapiens, UniProt P49761)
T5 construct: purchased Reaction Biology Europe GmbH (formerly ProQinase)
Description: as §1

CDK3/CycE1 = molecular target: T6, CDK3/CycE1 (Homo sapiens, UniProt Q00526)
T6 construct: purchased Reaction Biology Europe GmbH (formerly ProQinase)
Description: as §1

PBK = molecular target: T7, PBK (Homo sapiens, UniProt Q96KB5)
T7 construct: purchased Reaction Biology Europe GmbH (formerly ProQinase)
T7 sequence (Q96KB5 1-322): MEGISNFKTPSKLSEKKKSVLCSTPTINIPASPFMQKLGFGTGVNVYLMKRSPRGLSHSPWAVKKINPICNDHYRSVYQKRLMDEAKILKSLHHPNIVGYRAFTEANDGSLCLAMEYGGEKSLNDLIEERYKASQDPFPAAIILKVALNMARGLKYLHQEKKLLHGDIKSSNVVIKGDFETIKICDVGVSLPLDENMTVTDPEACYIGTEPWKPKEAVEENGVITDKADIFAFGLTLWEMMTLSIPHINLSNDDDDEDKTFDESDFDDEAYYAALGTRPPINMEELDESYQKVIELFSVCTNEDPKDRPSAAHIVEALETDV
Description: as §1

CDK19/CycC = molecular target: T8, CDK19/CycC (Homo sapiens, UniProt Q9BWU1)
T8 construct: purchased Reaction Biology Europe GmbH (formerly ProQinase)
Description: as §1

MLK4 = molecular target: T9, MLK4 (Homo sapiens, UniProt Q5TCX8)
T9 construct: purchased Reaction Biology Europe GmbH (formerly ProQinase)
Description: as §1

IRAK1 = molecular target: T10, IRAK1 (Homo sapiens, UniProt P51617)
T10 construct: purchased Reaction Biology Europe GmbH (formerly ProQinase)
Description: as §1

CAMK4 = molecular target: T11, CAMK4 (Homo sapiens, UniProt Q16566)
T11 construct: purchased Reaction Biology Europe GmbH (formerly ProQinase)
T11 sequence (Q16566 1-473): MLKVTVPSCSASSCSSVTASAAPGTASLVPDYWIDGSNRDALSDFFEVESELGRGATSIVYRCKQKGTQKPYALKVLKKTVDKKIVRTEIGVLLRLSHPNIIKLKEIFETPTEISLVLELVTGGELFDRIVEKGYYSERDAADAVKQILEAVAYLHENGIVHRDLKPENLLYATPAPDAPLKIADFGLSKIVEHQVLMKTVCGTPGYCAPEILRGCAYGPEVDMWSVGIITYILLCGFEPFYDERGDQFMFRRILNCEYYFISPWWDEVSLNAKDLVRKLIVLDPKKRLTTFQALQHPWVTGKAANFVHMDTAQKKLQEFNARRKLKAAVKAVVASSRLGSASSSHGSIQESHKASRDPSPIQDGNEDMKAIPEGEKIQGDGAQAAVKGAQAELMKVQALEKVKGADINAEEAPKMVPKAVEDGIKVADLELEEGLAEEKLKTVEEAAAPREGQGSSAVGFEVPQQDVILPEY
Description: as §1

T8 sequence (Q9BWU1 whole entry): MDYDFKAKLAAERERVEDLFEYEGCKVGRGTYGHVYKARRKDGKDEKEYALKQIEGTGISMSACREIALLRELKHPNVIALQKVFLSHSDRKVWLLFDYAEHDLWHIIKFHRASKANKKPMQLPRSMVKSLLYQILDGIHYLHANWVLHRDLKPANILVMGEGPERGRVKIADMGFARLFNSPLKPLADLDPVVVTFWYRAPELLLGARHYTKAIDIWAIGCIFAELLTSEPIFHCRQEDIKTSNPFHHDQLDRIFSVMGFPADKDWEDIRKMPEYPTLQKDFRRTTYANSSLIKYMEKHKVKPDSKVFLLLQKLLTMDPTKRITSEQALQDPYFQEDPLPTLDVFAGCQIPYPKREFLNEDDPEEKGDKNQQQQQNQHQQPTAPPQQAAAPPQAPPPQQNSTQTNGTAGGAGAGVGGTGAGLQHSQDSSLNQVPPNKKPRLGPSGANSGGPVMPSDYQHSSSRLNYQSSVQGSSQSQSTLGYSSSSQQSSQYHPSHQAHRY
T8 sequence (P24863 whole entry partner): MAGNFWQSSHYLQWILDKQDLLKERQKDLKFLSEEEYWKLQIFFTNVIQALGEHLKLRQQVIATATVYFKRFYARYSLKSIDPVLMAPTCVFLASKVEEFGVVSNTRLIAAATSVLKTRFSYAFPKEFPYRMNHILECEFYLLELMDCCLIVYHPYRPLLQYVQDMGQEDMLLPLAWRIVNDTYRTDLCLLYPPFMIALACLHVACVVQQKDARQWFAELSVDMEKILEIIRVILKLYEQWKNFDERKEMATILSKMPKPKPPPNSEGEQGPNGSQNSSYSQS
T2 sequence (Q06187 whole entry): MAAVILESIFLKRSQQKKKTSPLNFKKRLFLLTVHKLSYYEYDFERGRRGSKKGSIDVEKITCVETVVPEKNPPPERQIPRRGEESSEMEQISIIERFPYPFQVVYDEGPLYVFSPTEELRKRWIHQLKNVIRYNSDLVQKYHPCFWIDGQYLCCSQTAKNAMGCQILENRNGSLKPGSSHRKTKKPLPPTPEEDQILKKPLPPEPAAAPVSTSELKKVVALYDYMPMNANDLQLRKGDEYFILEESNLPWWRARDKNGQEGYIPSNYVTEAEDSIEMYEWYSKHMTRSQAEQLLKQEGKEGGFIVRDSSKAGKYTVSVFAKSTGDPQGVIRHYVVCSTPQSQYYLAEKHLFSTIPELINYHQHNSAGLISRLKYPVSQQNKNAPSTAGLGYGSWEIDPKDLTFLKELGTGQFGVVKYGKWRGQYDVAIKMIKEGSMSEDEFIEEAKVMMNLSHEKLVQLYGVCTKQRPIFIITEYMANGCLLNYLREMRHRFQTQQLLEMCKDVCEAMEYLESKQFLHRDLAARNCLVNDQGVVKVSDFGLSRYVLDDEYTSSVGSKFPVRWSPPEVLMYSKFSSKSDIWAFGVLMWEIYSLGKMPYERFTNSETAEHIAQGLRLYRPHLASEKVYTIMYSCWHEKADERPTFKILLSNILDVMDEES
T9 sequence (Q5TCX8 whole entry): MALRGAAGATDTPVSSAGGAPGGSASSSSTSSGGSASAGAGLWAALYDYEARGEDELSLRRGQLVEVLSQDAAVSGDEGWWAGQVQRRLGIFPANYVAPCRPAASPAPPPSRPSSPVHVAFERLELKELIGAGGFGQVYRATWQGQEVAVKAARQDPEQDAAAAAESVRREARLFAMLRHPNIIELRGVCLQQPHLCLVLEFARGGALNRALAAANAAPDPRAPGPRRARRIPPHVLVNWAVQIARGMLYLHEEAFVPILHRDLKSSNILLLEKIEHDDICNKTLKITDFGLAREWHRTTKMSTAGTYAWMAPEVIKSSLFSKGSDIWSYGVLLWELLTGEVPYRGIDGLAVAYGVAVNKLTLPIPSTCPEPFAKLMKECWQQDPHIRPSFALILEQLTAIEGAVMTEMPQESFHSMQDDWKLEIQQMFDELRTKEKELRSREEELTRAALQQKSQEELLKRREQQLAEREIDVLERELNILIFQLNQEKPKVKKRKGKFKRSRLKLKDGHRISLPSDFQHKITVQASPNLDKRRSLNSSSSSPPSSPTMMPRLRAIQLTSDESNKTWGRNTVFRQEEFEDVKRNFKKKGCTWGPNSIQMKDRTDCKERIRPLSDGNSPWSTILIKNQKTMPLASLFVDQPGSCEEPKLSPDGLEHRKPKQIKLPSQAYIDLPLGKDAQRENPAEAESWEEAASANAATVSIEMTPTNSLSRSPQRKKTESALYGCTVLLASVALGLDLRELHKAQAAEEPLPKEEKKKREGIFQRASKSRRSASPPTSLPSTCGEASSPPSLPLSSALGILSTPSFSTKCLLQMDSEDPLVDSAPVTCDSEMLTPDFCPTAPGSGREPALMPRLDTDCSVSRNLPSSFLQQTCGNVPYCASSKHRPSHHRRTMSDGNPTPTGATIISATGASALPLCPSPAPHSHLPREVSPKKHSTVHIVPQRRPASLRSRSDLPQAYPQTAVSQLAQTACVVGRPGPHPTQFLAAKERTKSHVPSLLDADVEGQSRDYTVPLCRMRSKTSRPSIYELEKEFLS
T5 sequence (P49761 whole entry): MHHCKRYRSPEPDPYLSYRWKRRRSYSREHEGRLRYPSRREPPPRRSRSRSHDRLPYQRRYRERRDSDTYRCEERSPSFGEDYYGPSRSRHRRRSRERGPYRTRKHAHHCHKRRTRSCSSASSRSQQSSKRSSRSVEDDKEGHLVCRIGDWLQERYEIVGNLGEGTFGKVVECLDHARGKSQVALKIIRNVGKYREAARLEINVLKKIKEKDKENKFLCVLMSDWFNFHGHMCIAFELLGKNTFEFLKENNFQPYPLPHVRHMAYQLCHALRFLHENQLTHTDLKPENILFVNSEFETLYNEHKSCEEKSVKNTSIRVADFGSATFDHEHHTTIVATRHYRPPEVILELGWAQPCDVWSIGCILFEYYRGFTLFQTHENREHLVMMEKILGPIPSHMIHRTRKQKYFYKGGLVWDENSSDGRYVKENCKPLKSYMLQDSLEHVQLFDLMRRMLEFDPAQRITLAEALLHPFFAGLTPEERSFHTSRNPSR
T10 sequence (P51617 whole entry): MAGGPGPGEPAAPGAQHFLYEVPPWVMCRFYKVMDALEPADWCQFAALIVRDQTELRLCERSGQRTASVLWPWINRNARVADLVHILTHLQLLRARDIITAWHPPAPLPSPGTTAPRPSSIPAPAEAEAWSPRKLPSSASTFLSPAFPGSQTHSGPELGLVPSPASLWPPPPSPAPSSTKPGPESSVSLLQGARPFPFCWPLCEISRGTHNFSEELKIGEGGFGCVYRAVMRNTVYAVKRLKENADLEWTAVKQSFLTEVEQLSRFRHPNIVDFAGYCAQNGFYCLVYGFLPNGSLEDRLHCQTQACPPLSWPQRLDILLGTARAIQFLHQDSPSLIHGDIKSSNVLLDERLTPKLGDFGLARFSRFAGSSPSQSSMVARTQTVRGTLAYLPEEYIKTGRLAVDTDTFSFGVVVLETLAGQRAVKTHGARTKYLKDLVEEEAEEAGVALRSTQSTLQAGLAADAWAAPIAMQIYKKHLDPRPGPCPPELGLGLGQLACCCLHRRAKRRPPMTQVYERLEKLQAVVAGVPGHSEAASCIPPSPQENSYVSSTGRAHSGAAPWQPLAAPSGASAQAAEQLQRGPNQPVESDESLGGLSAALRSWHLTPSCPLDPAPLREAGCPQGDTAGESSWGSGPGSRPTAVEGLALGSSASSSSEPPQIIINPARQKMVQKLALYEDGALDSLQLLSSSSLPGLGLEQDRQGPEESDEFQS

Row | Compound | residual kinase activity (EPHB2; 0.3 µM) | residual kinase activity (BTK; 0.3 µM) | residual kinase activity (ZAK; 0.3 µM) | residual kinase activity (PKCα; 0.3 µM) | residual kinase activity (CLK3; 0.3 µM) | residual kinase activity (CDK3/CycE1; 0.3 µM) | residual kinase activity (PBK; 0.3 µM) | residual kinase activity (CDK19/CycC; 0.3 µM) | residual kinase activity (MLK4; 0.3 µM) | residual kinase activity (IRAK1; 0.3 µM) | residual kinase activity (CAMK4; 0.3 µM) | also measured
1 | COc1ccnc2[nH]cc(-c3cc(N)nc(N)c3)c12 [meriolin 16] | 95 % of control | 96 % of control | 83 % of control | 80 % of control | 36 % of control | 5 % of control | 90 % of control | 2 % of control | 75 % of control | 76 % of control | 92 % of control | residual kinase activity (EPHB2; 0.03 µM): 97 % of control; residual kinase activity (BTK; 0.03 µM): 114 % of control; residual kinase activity (ZAK; 0.03 µM): 96 % of control; residual kinase activity (PKCα; 0.03 µM): 95 % of control; residual kinase activity (CLK3; 0.03 µM): 94 % of control; residual kinase activity (CDK3/CycE1; 0.03 µM): 36 % of control; residual kinase activity (PBK; 0.03 µM): 95 % of control; residual kinase activity (CDK19/CycC; 0.03 µM): 6 % of control; residual kinase activity (MLK4; 0.03 µM): 105 % of control; residual kinase activity (IRAK1; 0.03 µM): 95 % of control; residual kinase activity (CAMK4; 0.03 µM): 96 % of control
2 | c1ccc(CNc2cc(-c3c[nH]c4ncccc34)ccn2)cc1 [meriolin 36] | 85 % of control | 103 % of control | 57 % of control | 49 % of control | 13 % of control | 1 % of control | 69 % of control | 3 % of control | 73 % of control | 49 % of control | 92 % of control | residual kinase activity (EPHB2; 3 µM): 47 % of control; residual kinase activity (BTK; 3 µM): 77 % of control; residual kinase activity (ZAK; 3 µM): 14 % of control; residual kinase activity (PKCα; 3 µM): 11 % of control; residual kinase activity (CLK3; 3 µM): 1 % of control; residual kinase activity (CDK3/CycE1; 3 µM): -1 % of control; residual kinase activity (PBK; 3 µM): 80 % of control; residual kinase activity (CDK19/CycC; 3 µM): 0 % of control; residual kinase activity (MLK4; 3 µM): 40 % of control; residual kinase activity (IRAK1; 3 µM): 9 % of control; residual kinase activity (CAMK4; 3 µM): 73 % of control
